From patent US20100292229A1, “TRYPHOSTIN-ANALOGS FOR THE TREATMENT OF CELL PROLIFERATIVE DISEASES” (The Board of Regents of the University of Texas System, priority 2006, published 2010) come the findings set out here.

The test concerns Stat3. The test is described as follows: IL-6 stimulated Stat3 activation (pY-Stat3) immunoblot in MM-1 cells. In kind it is cell-based. The procedure:
Left: MM-1 cells were pretreated with Degrasyn (5 μM WP1130) for 2 h before incubation with IL-6 (10 ng/ml) for 15 min. Cell lysates were prepared and assessed for Stat3 activation (pY-Stat3) and protein levels (Stat3) by immunoblotting. Actin was used as a control for protein loading.
Left: MM-1 cells were pretreated with buffer alone (−), AG490 (50 μM) or Degrasyn (5 μM) for 2 h before incubation with IL-6 for 15 min. Cell lysates were prepared and Jak2 was immunoprecipitated and immunoblotted with anti-Jak2 (top). Cell lysates (50 μg) were immunoblotted for pY-Stat3, Stat3 or actin.
Western Blot analysis. Cells were harvested, washed twice in cold 1×PBS and lysed in modified RIPA lysis buffer (150 mM NaCl, 1% NP-40, 0.5% Na-deoxycholate [DOC], 0.1% Na-dodecyl sulfate [SDS], 50 mM Tris-HCl (pH 7.5), 1 mM EDTA, 1 mM NaF, 2 mM Na-vanadate, with protease inhibitors (1 mM PMSF, 1 mM benzamidine, 10 μg/ml aprotinin, 10 μg/ml leupeptin) on ice for 30 min. The lysed cells were centrifuged at 13,000 rpm for 30 min and the supernatant collected. The protein concentration of the cell lysate was determined by the Bradford Protein Assay. Fifty to 60 μg of protein were resolved in a 10% SDS-PAGE, and transferred to a PVDF membrane. […]
On the technique in general: In western blotting, separated proteins are transferred to a membrane and probed.

Molecules are shown by their SMILES.

Consider `CCC[C@H](NC(=O)/C(C#N)=C/c1cccc(Br)n1)c1ccccc1` [Degrasyn], for which the “Stat3 activation (pY-Stat3)” value (5 μM, 2 h pretreatment, IL-6 10 ng/ml 15 min) is recorded as “blocked Stat3 activation”. For the same compound, the “Stat3 activation compared with AG490” value (Degrasyn 5 μM vs AG490 50 μM, 2 h, IL-6 15 min) is “reduces Stat3 activation more effectively than 10-fold greater concentrations of AG490”.
